Assays:
[1] = test system: lipofuscin induced cardiolipin photoperoxidation; test: Inhibition of lipofuscin induced cardiolipin liposome photoperoxidation; format: biochemical, human; settings: for Concentration of TBK-active products / Inhibition: 2 mM compound; for Inhibiting / protective effect regarding phototoxic action of lipofuscin granules: result in words
Method: Liposomes are prepared from methanolic solution of cardiolipin (initial concentration: 5 mg/ml) by evaporation of methanol and solubilization of cardiolipin in a phosphate buffer. A mixture comprising a suspension of liposomes and lipofuscin granules, isolated from tissue of a retinal pigmentary epithelium of a human eye, is subjected to irradiation with intensive blue light under constant stirring. Concentration of lipid peroxidation products (TBK-active products) is determined after 20, 40, 60 and 90 minutes. The experimental sample contained 2 mM of a solution of compound Ic, or 2 mM of a solution of mexydole.

traumatic hemophthalmia = test: Experimental traumatic hemophthalmia: biochemical parameters in blood serum, tear liquid, anterior chamber liquid and eye tissue; format: in vivo, chinchilla rabbits
Method: Studies were carried out in 12 chinchilla rabbits having body weight 2.0-2.5 kg. A traumatic hemophthalmia was modeled by introduction of 0.5 to 0.7 ml of autoblood into a vitreous body through a puncture in a sclera on distance of 5 mm from a limbus, under a local anaesthesia. The basic group made with 6 rabbits (12 eyes), daily received a formulation prepared in accordance with the present invention parabulbarly (0.5 ml of 1% solution). A control group presented by 6 animals (12 eyes), daily received parabulbar emoxipin (2-ethyl-6-methyl-3-hydroxypiridin) in the same dosage. Treatment was carried out within 14 days after a trauma.
The materials used for biochemical examination were as follows: blood, liquid of the anterior chamber, tear liquid, tunics of eyeglobe (retina, a vitreous body). The blood was taken from the aural vein in an amount of 3 ml. Sampling of tear liquid was carried out by a microcapillary after instillation of distilled water into the conjunctival cavity. Liquid of the anterior chamber was obtained by paracentesis. The blood sampling as well as liquid of the anterior chamber and teat liquid were carried out on the 1st, 7th and 14th day of the experiment. On the 15th day of the studies, the animals were killed (pithed) by air embolism and both the eyes were enucleated. The eyes were prepared by tunic separation. Retina and vitreous body were obtained.

[2] = 1st day, anterior chamber liquid (ACL)
[3] = 7th day, anterior chamber liquid (ACL)
[4] = 14th day, anterior chamber liquid (ACL)

2,4,6-trimethyl-3-oxypyridine succinate [Compound Ic]
Concentration of TBK-active products ([1]; radiation time 0 min): 1.3 nmol/mg lipid | Inhibition ([1]; radiation time 0 min): 0% | Concentration of TBK-active products ([1]; radiation time 20 min): 2.42 nmol/mg lipid | Inhibition ([1]; radiation time 20 min): 20% | Concentration of TBK-active products ([1]; radiation time 40 min): 2.53 nmol/mg lipid | Inhibition ([1]; radiation time 40 min): 28% | Concentration of TBK-active products ([1]; radiation time 60 min): 2.85 nmol/mg lipid | Inhibition ([1]; radiation time 60 min): 40% | Concentration of TBK-active products ([1]; radiation time 90 min): 3.28 nmol/mg lipid | Inhibition ([1]; radiation time 90 min): 40% | Inhibiting / protective effect regarding phototoxic action of lipofuscin granules [1]: active inhibitor | Inhibiting / protective effect regarding phototoxic action of lipofuscin granules ([1]; listed as I): protective effect | AOA (traumatic hemophthalmia; [2]): 0.4 ± 0.01 relative unit | Concentration of TBA-active products (traumatic hemophthalmia; [2]): 0.97 ± 0.18 nmol/mL | Protein concentration (traumatic hemophthalmia; [2]): 3.1 ± 1.2 mg/mL | AOA (traumatic hemophthalmia; 1st day, blood serum (BS)): 1.7 ± 0.3 relative unit | Concentration of TBA-active products (traumatic hemophthalmia; 1st day, blood serum (BS)): 1.29 ± 0.13 nmol/mL | Protein concentration (traumatic hemophthalmia; 1st day, blood serum (BS)): 90.0 ± 6.0 mg/mL | AOA (traumatic hemophthalmia; 1st day, tear liquid (TL)): 0.23 ± 0.02 relative unit | Concentration of TBA-active products (traumatic hemophthalmia; 1st day, tear liquid (TL)): 0.14 ± 0.01 nmol/mL | Protein concentration (traumatic hemophthalmia; 1st day, tear liquid (TL)): 0.32 ± 0.2 mg/mL | AOA of basic group relative to control group, average of all measured substrata (traumatic hemophthalmia; 7th day): 1.5 times | AOA (traumatic hemophthalmia; 7th day, anterior chamber liquid): 0.8±0.07 /100 mcl | AOA (traumatic hemophthalmia; [3]): 0.8 ± 0.07 relative unit | Concentration of TBA-active products (traumatic hemophthalmia; [3]): 0.8 ± 0.5 nmol/mL | Protein concentration (traumatic hemophthalmia; [3]): 4.4 ± 1.2 mg/mL | AOA (traumatic hemophthalmia; 7th day, blood serum): 2.4±0.02 /100 mcl | AOA (traumatic hemophthalmia; 7th day, blood serum (BS)): 2.4 ± 0.02 relative unit | Concentration of TBA-active products (traumatic hemophthalmia; 7th day, blood serum (BS)): 1.17 ± 0.05 nmol/mL | Protein concentration (traumatic hemophthalmia; 7th day, blood serum (BS)): 82.4 ± 1.3 mg/mL | AOA (traumatic hemophthalmia; 7th day, tear liquid): 0.24±0.02 /200 mcl | AOA (traumatic hemophthalmia; 7th day, tear liquid (TL)): 0.24 ± 0.02 relative unit | Concentration of TBA-active products (traumatic hemophthalmia; 7th day, tear liquid (TL)): 0.13 ± 0.05 nmol/mL | Protein concentration (traumatic hemophthalmia; 7th day, tear liquid (TL)): 0.7 ± 0.2 mg/mL | AOA (traumatic hemophthalmia; 14th day, anterior chamber liquid): 0.5±0.05 /100 mcl | AOA (traumatic hemophthalmia; [4]): 0.5 ± 0.05 relative unit | Concentration of TBA-active products (traumatic hemophthalmia; [4]): 0.6 ± 0.2 nmol/mL | Protein concentration (traumatic hemophthalmia; [4]): 4.1 ± 1.1 mg/mL | AOA (traumatic hemophthalmia; 14th day, blood serum): 1.9±0.7 /100 mcl | AOA (traumatic hemophthalmia; 14th day, blood serum (BS)): 1.9 ± 0.7 relative unit | Concentration of TBA-active products (traumatic hemophthalmia; 14th day, blood serum (BS)): 0.9 ± 0.15 nmol/mL | Protein concentration (traumatic hemophthalmia; 14th day, blood serum (BS)): 47.0 ± 3.0 mg/mL | AOA (traumatic hemophthalmia; 14th day, tear liquid): 0.08±0.02 /200 mcl | AOA (traumatic hemophthalmia; 14th day, tear liquid (TL)): 0.08 ± 0.02 relative unit | Concentration of TBA-active products (traumatic hemophthalmia; 14th day, tear liquid (TL)): 0.04 ± 0.07 nmol/mL | Protein concentration (traumatic hemophthalmia; 14th day, tear liquid (TL)): 0.6 ± 0.2 mg/mL | AOA (traumatic hemophthalmia; Retina, listed under 14th day (eyes enucleated on the 15th day)): 0.4 ± 0.07 relative unit | AOA (traumatic hemophthalmia; Vitreous body, listed under 14th day (eyes enucleated on the 15th day)): 3.5 ± 0.9 relative unit | Antioxidant activity in vivo in comparison (traumatic hemophthalmia; conclusion in words): higher antioxidant activity than emoxipin | Augmentation of AOA in basic group in comparison with the control group (traumatic hemophthalmia; eye tunics, a retina and a vitreous body): 2 times

Source: patent publication US20110045065A1, “SUBSTANCE HAVING ANTIOXIDANT, GEROPROTECTIVE AND ANTI-ISCHEMIC ACTIVITY AND METHOD FOR THE PREPARATION THEREOF” (priority 2005, published 2011)
